Data from PMC4425807, “Investigating interactions between phentermine, dexfenfluramine, and 5-HT2C agonists, on food intake in the rat” (Psychopharmacology, 2014).
Read-outs that look alike come from different tables or passages of the source. Marks after values point to notes of the source that are not given here.

Tests used:
5-HT2C [1] = molecular target: T1, 5-HT2C (Homo sapiens, UniProt P28335); test: 125I-DOI binding at 5-HT2C; conditions: internally generated data
T1 sequence (P28335 33-458): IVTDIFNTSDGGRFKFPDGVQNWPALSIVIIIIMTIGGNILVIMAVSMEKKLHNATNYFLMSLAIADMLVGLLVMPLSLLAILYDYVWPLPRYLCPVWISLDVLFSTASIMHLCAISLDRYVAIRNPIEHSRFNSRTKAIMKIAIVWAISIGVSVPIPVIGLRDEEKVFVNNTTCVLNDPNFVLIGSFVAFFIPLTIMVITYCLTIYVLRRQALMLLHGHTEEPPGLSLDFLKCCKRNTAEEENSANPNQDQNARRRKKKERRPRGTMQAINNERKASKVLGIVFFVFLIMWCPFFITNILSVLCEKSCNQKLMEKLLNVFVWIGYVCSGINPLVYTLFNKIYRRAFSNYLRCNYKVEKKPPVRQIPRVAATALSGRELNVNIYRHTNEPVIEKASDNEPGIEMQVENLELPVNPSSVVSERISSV

[2] = Brain drug concentrations 60 min after single oral dose (LC-MS/MS); assay type: in vivo, rat; conditions: for concentration at 60 min: brain
Protocol: In vivo methods employed for pharmacokinetic studies were identical to those described for food intake studies except that after dosing, rats were not placed into new cages with grid floors. At 60 min after dosing (and 30 min after food access), rats were anesthetized with isoflurane, blood was collected via cardiac puncture, and brains were removed from the cranium. Blood samples were dispensed into sodium heparinized vials and capped and stored at 4 °C. Plasma was separated from formed elements in blood by centrifugation (10 min at 3,000×g) and frozen. Brains were rinsed with ice-cold phosphate-buffered saline, blotted dry, weighed, and frozen. Plasma and brain samples were stored at −80 °C prior to bioanalytical analysis.
Brain samples were thawed on ice, placed into 50 mL plastic conical tubes, and two volumes of purified water/gram of brain was added. Brains were homogenized using a mechanical variable speed tissue homogenizer; 50 μL of brain homogenate was transferred to a 1-mL plastic tube. A volume of acetonitrile (200 μL) containing internal standard was added to brain homogenate, mixed by vortex, and centrifuged (15 min at 3,700 rpm). […] Supernatants were analysed for lorcaserin, AR630, phentermine, dexfenfluramine, and the major metabolite of dexfenfluramine, norfenfluramine. Compound concentrations were determined using a LC-MS/MS method. Analytes were separated by reverse phase chromatography (Kinetex 3 × 30 mm, C18, 2.6 μm, 100 Å, HPLC Column, Phenomenex, Torrance, CA) using a binary gradient on a Shimadzu LC system (Shimadzu Corp., Columbia, MD). The gradient consisted of 0.1 % formic acid in water and 0.1 % formic acid in acetonitrile with a flow rate of 650 μL/min.

5-HT2B [3] = molecular target: T2, 5-HT2B (Homo sapiens, UniProt P41595); test: Functional activity at 5-HT2B; assay type: biochemical; conditions: internally generated data
food intake in the rat = test: Food intake in food-deprived rats: single-drug dose-responses and isobolographic analysis; assay type: in vivo; conditions: PO, 18 h food-deprived rat, 30 min intake measured 1 h after drug; from logarithmic regressions; read-out: ED50, inhibition of food intake
Protocol: Male Sprague–Dawley rats (Harlan, San Diego, CA) weighing 250–350 g were used for behavioural studies. Upon arrival at the test facility, animals were triple housed within a holding room controlled for humidity, temperature, and light (lights off 1800–0600 hours). Rats received food (2018SX Teklad Rodent Diet) and water ad libitum unless stated otherwise. Over the course of all studies, rats were re-used up to four times, with at least one week of washout between tests. Rats were assigned to treatment groups pseudo-randomly from test to test. One week prior to initial drug testing, all rats were subject to a single food intake test which was identical to all subsequent drug tests, except that all rats received vehicle administration. Group size for all studies, including brain sampling, was eight.
Eighteen hours prior to food intake testing (1600 hours), food was removed from home cages. On the next day, animals were weighed and placed into cages with grid floors at 1000 hours, and allowed to acclimate to these cages for a 90-min period with free access to water and no food. At 1130 hours, rats were injected with compounds via oral gavage. Thirty minutes after injection (1200 hours), animals were allowed access to food. Food was then weighed at 30 min after food exposure (1 h after drug administration). Upon test conclusion, rats were returned to home cages with ad libitum access to food and water.
Doses were selected based upon previous in-house experience with these compounds and ascended in twofold steps. Two subsequent studies were run for each isobologram, with dose–responses of each compound pair run in combination with a fixed, low dose of the other (phentermine 1 mg/kg; AR630 1 mg/kg; dexfenfluramine 0.5 mg/kg; lorcaserin 1 mg/kg). To approximate the true experimental errors in these experiments, a bootstrapping with replacement approach was used (Huber [1981]; Launer and Wilkinson [1979]) in which five data sets were generated from random samples of the measured data points for both the individual dose–responses and for each drug/dose combination. […] A line of additivity with confidence limits was then drawn between the dose–responses of each compound alone.

5-HT2B [4] = molecular target: T2, 5-HT2B; test: 125I-DOI binding at 5-HT2B; conditions: internally generated data
5-HT2A [5] = molecular target: T3, 5-HT2A (Homo sapiens, UniProt P28223); test: 125I-DOI binding at 5-HT2A; conditions: internally generated data
5-HT2A [6] = molecular target: T3, 5-HT2A; test: Functional activity at 5-HT2A; assay type: biochemical; conditions: internally generated data
5-HT2C [7] = molecular target: T1, 5-HT2C; test: Functional activity at 5-HT2C; assay type: biochemical; conditions: internally generated data
[8] = when administered alone; cited from earlier work
[9] = combining topiramate with phentermine, humans; ref Qsymia Drug Label information; cited from earlier work
[10] = read-out: intrinsic activity (IA)

T3 sequence (P28223 whole entry): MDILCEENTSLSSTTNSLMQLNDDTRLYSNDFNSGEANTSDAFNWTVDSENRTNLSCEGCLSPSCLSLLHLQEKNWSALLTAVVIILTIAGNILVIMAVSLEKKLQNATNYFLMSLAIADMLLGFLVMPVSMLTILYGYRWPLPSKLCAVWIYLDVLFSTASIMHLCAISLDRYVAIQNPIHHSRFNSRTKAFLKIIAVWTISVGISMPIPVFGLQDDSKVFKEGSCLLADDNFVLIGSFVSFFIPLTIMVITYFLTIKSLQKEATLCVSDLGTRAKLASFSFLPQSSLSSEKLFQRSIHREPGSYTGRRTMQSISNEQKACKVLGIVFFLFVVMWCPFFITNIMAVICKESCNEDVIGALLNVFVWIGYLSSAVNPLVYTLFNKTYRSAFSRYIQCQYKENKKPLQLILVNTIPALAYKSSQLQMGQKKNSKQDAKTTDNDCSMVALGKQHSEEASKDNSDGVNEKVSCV
T2 sequence (P41595 whole entry, species assumed): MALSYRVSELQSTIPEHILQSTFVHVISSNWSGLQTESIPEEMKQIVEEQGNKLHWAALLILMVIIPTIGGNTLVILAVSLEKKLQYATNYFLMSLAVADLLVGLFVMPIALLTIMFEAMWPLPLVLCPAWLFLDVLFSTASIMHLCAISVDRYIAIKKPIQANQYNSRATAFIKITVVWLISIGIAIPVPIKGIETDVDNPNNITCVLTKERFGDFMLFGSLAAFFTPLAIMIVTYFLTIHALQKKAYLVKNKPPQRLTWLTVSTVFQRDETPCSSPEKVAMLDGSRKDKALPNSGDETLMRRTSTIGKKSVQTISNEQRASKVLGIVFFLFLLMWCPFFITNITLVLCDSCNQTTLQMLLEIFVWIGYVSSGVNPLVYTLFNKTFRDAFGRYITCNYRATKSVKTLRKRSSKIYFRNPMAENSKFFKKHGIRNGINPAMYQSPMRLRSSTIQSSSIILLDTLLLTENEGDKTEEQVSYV

## C[C@@H]1CNCCN1c1cc(Cl)ccc1F [AR630]
5-HT2C [1]
  Ki: 0.004 µM
[2]; AR630 1 mg/kg PO with phentermine 1 mg/kg, 60 min, rat
  Fold-change in brain concentration, combination vs alone: 1.12
[2]; Sprague-Dawley, rat, oral, AR630 1 mg/kg PO with phentermine 1 mg/kg, 60 min, rat, mean ± SEM, read-out: Brain concentration, combination
  concentration at 60 min: 92 ± 25 ng/g
[2]; Sprague-Dawley, rat, po, 1 mg/kg, AR630 1 mg/kg PO alone, 60 min, rat, mean ± SEM, read-out: Brain concentration, alone
  concentration at 60 min: 82 ± 14 ng/g
5-HT2B [3]
  EC50: 1 µM
5-HT2B [3]; [10]
  Emax: < 10%
Food intake in the rat
  ED50: 4.25 mg/kg
5-HT2B [4]
  Ki: 0.1 µM
5-HT2A [5]
  Ki: 0.12 µM
5-HT2A [6]
  EC50: 0.4 µM
5-HT2A [6]; [10]
  Emax: 60%
5-HT2C [7]
  EC50: 0.01 µM
5-HT2C [7]; [10]
  Emax: 100%

## CCN[C@@H](C)Cc1cccc(C(F)(F)F)c1 [Dexfenfluramine, (S)+-fenfluramine]
[2]; Sprague-Dawley, rat, oral, 0.5 mg/kg, dexfenfluramine 0.5 mg/kg PO alone, 60 min, rat, mean ± SEM, read-out: Brain concentration, alone
  concentration at 60 min: 130 ± 13 ng/g
[2]; Sprague-Dawley, rat, oral, dexfenfluramine 0.5 mg/kg PO with phentermine 1 mg/kg, 60 min, rat, mean ± SEM, read-out: Brain concentration, combination
  concentration at 60 min: 141 ± 19 ng/g
[2]; dexfenfluramine 0.5 mg/kg PO with phentermine 1 mg/kg, 60 min, rat
  Fold-change in brain concentration, combination vs alone: 1.08
Food intake in the rat
  ED50: 1.44 mg/kg

## C[C@H]1CNCCc2ccc(Cl)cc21 [Lorcaserin]
[2]; Sprague-Dawley, rat, oral, 1 mg/kg, lorcaserin 1 mg/kg PO alone, 60 min, rat, mean ± SEM, read-out: Brain concentration, alone
  concentration at 60 min: 1380 ng/g
[2]; Sprague-Dawley, rat, oral, lorcaserin 1 mg/kg PO with phentermine 1 mg/kg, 60 min, rat, mean ± SEM, read-out: Brain concentration, combination
  concentration at 60 min: 1440 ng/g
[2]; lorcaserin 1 mg/kg PO with phentermine 1 mg/kg, 60 min, rat
  Fold-change in brain concentration, combination vs alone: 1.05
Food intake in the rat
  ED50: 1.98 mg/kg

## CC(N)Cc1cccc(C(F)(F)F)c1 (centres unmarked) [Norfenfluramine, norfenfluramine]
[2]; after dexfenfluramine PO, 60 min, rat
  brain concentration of metabolite relative to parent dexfenfluramine: approximately sixfold
[2]; metabolite norfenfluramine after dexfenfluramine 0.5 mg/kg PO alone, 60 min, rat, mean ± SEM
  Brain concentration, alone: 805 ± 50 ng/g
[2]; metabolite norfenfluramine after dexfenfluramine 0.5 mg/kg PO with phentermine 1 mg/kg, 60 min, rat
  Fold-change in brain concentration, combination vs alone: 0.94
[2]; metabolite norfenfluramine after dexfenfluramine 0.5 mg/kg PO with phentermine 1 mg/kg, 60 min, rat, mean ± SEM
  Brain concentration, combination: 760 ± 27 ng/g

## CC(C)(N)Cc1ccccc1 [Phentermine]
[2]; Sprague-Dawley, brain/plasma, oral, phentermine dosed alone or in the various combinations, rat (data not shown), read-out: brain/plasma ratio
  Kp at 60 min: ~13
[2]; Sprague-Dawley, rat, oral, 1 mg/kg, phentermine 1 mg/kg PO alone, 60 min, rat, AR630 study, mean ± SEM, read-out: Brain concentration, alone
  concentration at 60 min: 226 ± 32 ng/g
[2]; Sprague-Dawley, rat, oral, 1 mg/kg, phentermine 1 mg/kg PO alone, 60 min, rat, dexfenfluramine study, mean ± SEM, read-out: Brain concentration, alone
  concentration at 60 min: 298 ± 29 ng/g
[2]; Sprague-Dawley, rat, oral, 1 mg/kg, phentermine 1 mg/kg PO alone, 60 min, rat, lorcaserin study, mean ± SEM, read-out: Brain concentration, alone
  concentration at 60 min: 298 ± 29 ng/g
[2]; Sprague-Dawley, rat, oral, phentermine 1 mg/kg PO with AR630 1 mg/kg, 60 min, rat, mean ± SEM, read-out: Brain concentration, combination
  concentration at 60 min: 866 ± 120 ng/g
[2]; Sprague-Dawley, rat, oral, phentermine 1 mg/kg PO with dexfenfluramine 0.5 mg/kg, 60 min, rat, mean ± SEM, read-out: Brain concentration, combination
  concentration at 60 min: 787 ± 57 ng/g
[2]; Sprague-Dawley, rat, oral, phentermine 1 mg/kg PO with lorcaserin 1 mg/kg, 60 min, rat, mean ± SEM, read-out: Brain concentration, combination
  concentration at 60 min: 335 ± 18 ng/g
[2]; phentermine 1 mg/kg PO with AR630 1 mg/kg, 60 min, rat
  Fold-change in brain concentration, combination vs alone: 3.80**
[2]; phentermine 1 mg/kg PO with AR630 1 mg/kg, 60 min, rat, listed as phentermine
  Fold-change in brain concentration, combination vs alone: 3.8
[2]; phentermine 1 mg/kg PO with dexfenfluramine 0.5 mg/kg, 60 min, rat
  Fold-change in brain concentration, combination vs alone: 2.60**
[2]; phentermine 1 mg/kg PO with dexfenfluramine 0.5 mg/kg, 60 min, rat, listed as phentermine
  Fold-change in brain concentration, combination vs alone: 2.6
[2]; phentermine 1 mg/kg PO with lorcaserin 1 mg/kg, 60 min, rat
  Fold-change in brain concentration, combination vs alone: 1.12
[2]; phentermine 1 mg/kg PO with lorcaserin 1 mg/kg, 60 min, rat, listed as phentermine
  Fold-change in brain concentration, combination vs alone: 1.1
[8]
  fraction of dose excreted as unchanged phentermine in urine: 70–80%
[9]
  increase in phentermine area under the curve: 42%
Food intake in the rat
  ED50: 2.45 mg/kg
